# Test results from patent USRE41226E1, “Compounds having reversible inhibiting activity of carnitine palmitoyl-transferase” (Sigma-Tau Industrie Farmaceutiche Riunite S.p.A., priority 1998, dated 2010).
# How the values were obtained:
# [1] = system: β-hydroxybutyrate production in rat hepatocytes; experiment: Oleate-stimulated β-hydroxybutyrate production in rat hepatocytes; type: cell-based; settings: 40 min incubation, then oleate 1 mM for 20 min, mean of three experiments, read-out: IC50 of inhibition CPTI curve of β-hydroxybutyrate production in rat hepatocytes
# Protocol: β-hydroxybutyrate production is an index of CPT activity. In fact, the production of ketone bodies, final products of mitochrondrial β-oxidation, is related to CPT activity.
# Mitocondrial preparations, obtained according to the method by Venerando et al. (Am. J. Physiol. 266:C455-C461, 1994), were used. Hepatocytes are incubated at 37° C. in KRB bicarbonate buffer at pH 7.4, 6 mM glucose, 1% BSA in O2/CO2 95/5 atmosphere at 2.5×10^6 cells/ml. After 40 min incubation with the test compound at different concentrations, the first set of samples was taken (T0 min) and oleate was added (1 mM final in KRB+BSA 1.4%). After 20 minutes, the second withdrawal was made (T20 min)
# The data are the mean of three different experiments, twice carried out.
# CPTI = biological target: T1, CPTI (Rattus norvegicus, UniProt P32198); experiment: Determination of CPT inhibiting activity in rat liver mitochondria; type: biochemical, Fischer rat; settings: 50 μM [14C] palmitoyl-CoA, 10 mM L-carnitine, 37° C., 1 minute, read-out: IC50 of inhibition CPTI curve in rat liver mitochondria
# T1 construct: Mitochondria were isolated from liver or heart and suspended in 75 mM saccharose buffer; from tissue; host or cells: liver mitochondria of normally fed Fischer rats
# T1 sequence (P32198 1-773): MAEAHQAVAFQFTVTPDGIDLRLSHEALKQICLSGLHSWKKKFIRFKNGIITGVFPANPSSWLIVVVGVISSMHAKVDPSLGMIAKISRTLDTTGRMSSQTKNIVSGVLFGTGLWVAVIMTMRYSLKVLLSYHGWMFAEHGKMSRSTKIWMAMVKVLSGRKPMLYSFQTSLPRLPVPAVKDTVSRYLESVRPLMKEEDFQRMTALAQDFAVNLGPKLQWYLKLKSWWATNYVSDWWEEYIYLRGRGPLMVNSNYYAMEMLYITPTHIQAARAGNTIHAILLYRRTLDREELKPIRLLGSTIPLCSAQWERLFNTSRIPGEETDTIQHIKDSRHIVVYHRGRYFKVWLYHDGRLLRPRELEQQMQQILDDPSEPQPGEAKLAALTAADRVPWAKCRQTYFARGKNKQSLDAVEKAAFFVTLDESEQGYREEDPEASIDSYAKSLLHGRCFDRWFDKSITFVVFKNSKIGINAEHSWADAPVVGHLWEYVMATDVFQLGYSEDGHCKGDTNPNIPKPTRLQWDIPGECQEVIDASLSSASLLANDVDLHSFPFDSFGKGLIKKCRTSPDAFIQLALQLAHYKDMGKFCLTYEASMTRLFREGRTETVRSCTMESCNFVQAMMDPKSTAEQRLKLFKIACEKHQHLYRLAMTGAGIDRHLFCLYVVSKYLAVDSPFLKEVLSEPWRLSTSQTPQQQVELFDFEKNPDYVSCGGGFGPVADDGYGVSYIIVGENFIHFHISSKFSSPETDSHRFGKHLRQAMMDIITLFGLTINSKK
# Protocol: CPT inhibition was evaluated essentially as described in Kerner, J. & Bieber, L. L. (1990) Biochemistry 29: 4326-34 on fresh mitochrondrial preparation obtained from normally fed Fischer rat liver or heart. Mitochondria were isolated from liver or heart and suspended in 75 mM saccharose buffer, 1 mM EGTA, pH 7.5. 100 μl mitochrondrial suspension, containing 50 μM [^14C] palmitoyl-CoA (specific activity […]) and 10 mM L-carnitine, were incubated at 37° C., in the presence of scalar concentrations of the test product (0-3 mM). Reaction time: 1 minute.
# 24 hours-starved rats = experiment: Glucose and β-hydroxybutyrate in serum of fasted rats treated with CPT inhibitors; type: in vivo, Fischer rats; settings: one hour after intraperitoneal treatment, ST1326 14.5 mg/2 ml/kg, others equivalent dose
# Protocol: Normally fed Fischer rats were starved for 24 hours and subsequently treated with the test compounds. One hour after the treatment, the animals were sacrificed and serum concentrations of glucose and β-hydroxybutyrate were determined.
# For the compound ST1326 were used doses of 14.5 mg/2 ml/kg, for other test compounds, the doses are equivalent to ST1326 one.
# fed with high-fat diet = experiment: Glucose and insulin levels in diabetic animals (high-fat diet) treated with CPT inhibitors; type: in vivo, C57BL/6J male rats; settings: 45 mg/Kg p.o. twice a day, after 20 days of treatment
# Protocol: C57BL/6J male […], 5-weeks old, were provided by Ch. River. After 10 days of acclimatisation in standard conditions (22±2° C.; 55±15% humidity; 15-20/h air changes; 12 hours light-dark cycle, with 700-1900 lux) and with standard diet with 4RF21 feedstock (Mucedola), glycaemia was controlled in post-absorption state (starving from 8.30 a.m. to 4.30 p.m.). Blood withdrawal was carried out cutting the tail end. Glucose was analyzed in blood acid supernatant (HCLO4 0,375 N) with autoanalyzer Cobas Mira S with Glucose GDH Kit (Roche).
# The animals were divided in two groups, 26 mice each and fed with a high-fat and a low-fat diet, respectively.
# After 2 months from the start of the diet, glycaemia was tested, according to the starrting method. After about 3 months from the start of the diet, glycaemia was tested, according to the starting method and plasma insulin levels were also determined (with blood withdrawal from end tail cutting) using [125I] Rat Insulin Kit (Amersham).
# One 10 mice group fed with low-fat diet and two 10-mice groups fed with the high-fat diet were selected. One of the two high fat diet was administered with ST 1327 at the dose of 45 mg/Kg in deionised H2O (p.o., twice a day, 8.30 a.m. and 5.30 p.m.).administration volume was 10 ml/Kg, the two remaining groups were treated with vehicle only. High-fat or low-fat diets were continued during the treatment.
# After 20 days of treatment, glycaemia and plasma insulin were measured. After 43 days of treatment, the animals were sacrificed by decapitation in post-absorption state (fasting 8.30 a.m.-4.30 p.m.), 8 hours after the last treatment. Blood was withdrawn and serum was separated by centrifugation and stored at −80° C. Liver, heart and skeletal muscle (upper limbs) were also extracted, frozen in dry ice-acetone and kept at −80° C.
# [2] = system: hearts perfused according to Langendorff technique; experiment: Myocardial ischemia: LDH release from Langendorff-perfused rat hearts (ischemia/reperfusion); parameters: species or system male Wistar rats
# Protocol: To this end, male Wistar rats, weighing 200-225 g, provided by Charles-River, were kept at constant temperature of 23°+/−1° C., 50+/−10% relative humidity, 12 hours light-dark cycle, fed with pellet 4RF21 (Mucedola) tap water ad libitum.
# The amimals were anaesthetised with sodium Pentobarbital at the dose of 70 mg/Kg i.p.. Hearts were rapidly removed and put in a cold Krebs-Henseleit solution, before incannulation of aorta e subsequent perfusion according to Langendorff technique at 37° C. with a pressure of 100 cm water.
# Perfusion medium (Krebs-Henseleit) at pH 7.4 consists in: 128 mM NaCl, 4.7 mM KCl, 1 mM MgCl2, 0.4 mM Na2HP04, 20.2 mM NaHCO3, 1.3 mM CaCl2, 5 mM glucose. The medium was constantly oxygenated with carbogen (95% O2, 5% CO2).
# After a 10 min “conditioning” period, hearts were perfused in a recirculant apparatus for 20 min. with the same medium containing 0.6 mM palmitate complexed with albumine (fraction V, fatty acid free), with or without the CPT inhibitor according to the present invention. By way of example ST 1364 was used at concentrations of 1 and 5 μM. After such a period ischemia was induced by reducing perfusion hydrostatic pressure from 100 cm to 20 cm for a period of 30 min. Reperfusion was started re-establishing the starting pressure conditions (100 cm).Hearts were controlled for 20 min. the inhibitor is present also during reperfusion phase.
# Lactate dehydrogenases (LDH) release was monitored in the effluent in normal oxygenation conditions, during ischemia, with a withdrawal of medium at 30′, and during reperfusion, with withdrawals at 1.5, 10, 15 and 20 minutes.
# Statistical analysis was carried out with Student's “t” test for non-paired data.
# The number of the cases for each group is six (n=6).
IC50 (CPTI) [µM],Compound,IC50 [1] [µM],"Glu (glucose) serum concentration, Mean (24 hours-starved rats)","β-OHB serum concentration, Mean (24 hours-starved rats)",other results
–,"CCCCCCCCCOC(=O)NC(CC(=O)[O-])C[N+](C)(C)C (centres unmarked) [ST1285, R,S-4-trimethylammonium-3-(nonyloxycarbonyl)-aminobutyrate]",1.9,–,–,–
0.75,"CCCCCCCCCCCCCCNC(=O)N[C@H](CC(=O)[O-])C[N+](C)(C)C [ST1326, R-4-trimethylammonium-3-(tetradecylcarbamoyl)amino butyrate]",–,84.2,133.1,–
–,"CCCCCCCCCNC(=O)NC(CC(=O)[O-])C[N+](C)(C)C (centres unmarked) [ST1251, R,S-4-trimethylammonium-3-(nonylcarbamoyl)aminobutyrate]",0.5,76.9,99.8,–
3.2,"CCCCCCCCCCCNC(=O)N[C@H](CC(=O)[O-])C[N+](C)(C)C [ST1327, R-4-trimethylammonium-3-(undecylcarbamoyl)-aminobutyrate]",–,84.9,93.0,"Glucose (fed with high-fat diet; High Fat diet Treated, p<0.001 against high fat diet): 181.4 ± 9.63 mg/dL; Insulin (fed with high-fat diet; High Fat diet Treated, p<0.01 against high fat diet): 0.621 ± 0.117 ng/mL; glucose levels (in words) (fed with high-fat diet; high-fat diet): significantly decreased; insulin levels (in words) (fed with high-fat diet; high-fat diet): significantly decreased"
–,"CCCCCCCCOC(=O)NC(CC(=O)O)C[N+](C)(C)C.[Cl-] (centres unmarked) [ST1253, R,S-4-trimethylammonium-3-(octyloxycarbonyl)-aminobutyrate chloride]",0.9,88.2,118.8,–
17.4,"CCCCCCCCCCCCCCOP(=O)([O-])O[C@H](CC(=O)O)C[N+](C)(C)C [SDZ-CPI-975, reference compound]",3.7,87.6,119.9,–
–,"CCCCCCCCCCS(=O)(=O)NC(CC(=O)[O-])C[N+](C)(C)C (centres unmarked) [ST1364, R,S-4-trimethylammonium-3-(decansulfonyl)aminobutyrate]",–,–,–,"LDH release in perfusate ([2]; 1 μM, Basal): 275 mU/ml/min; LDH release in perfusate ([2]; 1 μM, Ischemia 30′): 220 mU/ml/min; LDH release in perfusate ([2]; 1 μM, Reperfusion 1′): 480 mU/ml/min; LDH release in perfusate ([2]; 1 μM, Reperfusion 5′): 500 mU/ml/min; LDH release in perfusate ([2]; 1 μM, Reperfusion 10′): 495 mU/ml/min; LDH release in perfusate ([2]; 1 μM, Reperfusion 15′): 510 mU/ml/min; LDH release in perfusate ([2]; 1 μM, Reperfusion 20′): 580 mU/ml/min; LDH release in perfusate ([2]; 5 μM, Basal): 220 mU/ml/min; LDH release in perfusate ([2]; 5 μM, Ischemia 30′): 200 mU/ml/min; LDH release in perfusate ([2]; 5 μM, Reperfusion 1′): 410 mU/ml/min; LDH release in perfusate ([2]; 5 μM, Reperfusion 5′): 380 mU/ml/min; LDH release in perfusate ([2]; 5 μM, Reperfusion 10′): 380 mU/ml/min; LDH release in perfusate ([2]; 5 μM, Reperfusion 15′): 320 mU/ml/min; LDH release in perfusate ([2]; 5 μM, Reperfusion 20′): 325 mU/ml/min; LDH release in the effluent during reperfusion (in words) ([2]; 5 μM, with respect to the controls): significantly reduced"
–,"CCCCCCCNC(=O)N[C@H](CC(=O)[O-])C[N+](C)(C)C [ST1328, R-4-trimethylammonium-3-(heptylcarbamoyl)-aminobutyrate]",–,79.5,169.2,–
